From paper PMC6315362, “Cytotoxic Potential of the Novel Horseshoe Crab Peptide Polyphemusin III” (Marine Drugs, 2018)
Where a SMILES comes first, the peptide text is derived from it. Bridges are numbered along the chain shown (N, C = ends).

Assays:
[1] = test system: A549 (human lung carcinoma cells); format: cell-based; settings: MTT after 48 h, DMEM/F12 with 10% FBS, mean ± SD of at least three independent experiments
Method: (§1) Cytotoxic activities of PM III, its isoforms, and tachyplesins against seven human cell lines were evaluated. Four cancer (HL-60 acute promyelocytic leukemia, HeLa cervix adenocarcinoma, SK-BR-3 breast adenocarcinoma, A549 lung carcinoma), one transformed (HEK 293T transformed human embryonic kidney), and two normal human cell lines (HEF human embryonic fibroblasts and NHA normal human astrocytes) were used for these experiments. Cytotoxicity was measured by incubating the cells with serial dilutions of PM I, PM II, PM III, TP I, TP II, or TP III samples followed by MTT assay after 48 h. The half-maximal inhibitory concentrations (IC50) were measured as the peptide concentration at which cell viability was reduced by 50% in comparison to untreated cells (Table 3).
The following tumor and transformed cell lines were used in this study: HL-60 (acute promyelocytic leukemia), HeLa (human cervix adenocarcinoma cells), SK-BR-3 (human breast adenocarcinoma cells), A549 (human lung carcinoma cells), HEK 293T (transformed human embryonic kidney cells), HEF (human embryonic fibroblasts), and NHA (normal human astrocytes) were used as normal cell lines. Tumor and transformed cell lines were obtained from the American Type Culture Collection (ATCC; www.atcc.org). Primary cells HEF (normal human embryonic fibroblasts derived from human embryonic stem cells) and NHA (normal human astrocytes derived from human fetal brain tissue) were obtained and cultured according to the corresponding protocol. Briefly, cells were cultured in DMEM/F12 (1:1) or RPMI-1640 medium containing 10% fetal bovine serum (Invitrogen, USA) at 37 °C in the atmosphere containing 5% CO2 and 95% air according to standard mammalian tissue culture protocols and using a sterile technique. All cell lines were tested by using the LookOut® Mycoplasma PCR Detection Kit (Sigma-Aldrich, St. Louis, MO, USA) according to the manufacturer’s protocol and found to be free of Mycoplasma infection.
The colorimetric 3-(4,5-dimethylthiazol-2-yl)-2,5-diphenyltetrazolium bromide (MTT) dye reduction assay was used to determine the cytotoxicity of the polyphemusins and tachyplesins. Cells (3 × 10^3–6 × 10^3 per well) were placed into 96-well plates in Dulbecco’s modified Eagle’s medium (DMEM/F12) supplemented with 10% fetal bovine serum (FBS). After incubation in the atmosphere containing 5% CO2 and 95% air at 37 °C overnight, the media were discarded, and polyphemusins or tachyplesins solutions were added to the cell cultures up to final concentrations of 2.5, 5, 10, 25, and 50 μM in a final volume of 0.1 mL DMEM/F12 with 10% FBS. HL-60 cells (4 × 10^4 in 50 μL) were added to two-time serial dilutions of polyphemusins solutions at a final concentration of 1.25, 2.5, 5, 10, 25, and 50 μM in 50 μL RPMI-1640 with 10% FBS. 48 hours later, 20 μL of MTT (5 mg/mL) was added into each well and the plates were incubated for 3 h at 37 °C. The plates with HL-60 cells were centrifuged for 10 min at 300 g. The media were discarded and 0.1 mL of dimethyl sulfoxide and isopropanol mixture at a ratio of 1:1 (v/v) was added to each well to dissolve the crystallized formazan. The absorbance at 570 nm was measured by a microplate reader (Eppendorf, Hamburg, Germany).

[2] = test system: Gram-negative and Gram-positive bacteria; settings: natural and synthetic peptides; cited from earlier work
Method: Our experimental data for the obtained recombinant PM I are in line with those obtained earlier for synthetic PM I against Gram-negative and Gram-positive bacteria (with reported MICs not exceeding 1 μM).

[3] = test system: human cell lines; test: MTT cytotoxic activity assay, IC50 summarised over cell lines; format: cell-based; settings: all human cells tested; MTT 48 h; read-out: IC50 range on human cancer, transformed, and normal cell lines
Method: as §1
The colorimetric 3-(4,5-dimethylthiazol-2-yl)-2,5-diphenyltetrazolium bromide (MTT) dye reduction assay was used to determine the cytotoxicity of the polyphemusins and tachyplesins. Cells (3 × 10^3–6 × 10^3 per well) were placed into 96-well plates in Dulbecco’s modified Eagle’s medium (DMEM/F12) supplemented with 10% fetal bovine serum (FBS). […] The absorbance at 570 nm was measured by a microplate reader (Eppendorf, Hamburg, Germany).

[4] = test system: HL-60 cells; test: Annexin V-FITC/propidium iodide double staining and flow cytometry; format: cell-based, human; settings: for double-stained cells, Q2-2 (AV+PI+, late apoptotic/necrotic): 4 h
Excerpt: To further investigate the effect of PM III on human cells, we performed annexin V-FITC/propidium iodide double staining with subsequent flow cytometric analysis. Annexin V-FITC binds to phosphatidylserine, which is exposed on the outer leaflet of the cellular plasma membrane at the initial stages of apoptosis, whereas propidium iodide (PI) preferentially stains nuclei of dead cells. Therefore, a combination of annexin V-FITC and PI assays allows differentiation between early apoptotic and late apoptotic/necrotic cell populations. PM III was used at two final concentrations of 2.5 and 5 μM. In order to elucidate the predominant mechanism of the PM III action, we applied a widely used caspase inhibitor, Z-VAD-FMK [23].
Cell death analysis with fluorescein isothiocyanate conjugated annexin V (annexin V-FITC)/propidium iodide double staining and dead cells counting with flow cytometry were performed 4 h after addition of polyphemusin III up to a final concentration of 2.5 or 5 μM. The Annexin V-FITC Apoptosis Detection Kit (BD Biosciences, Franklin Lakes, NJ, USA) was used according to the manufacturer’s protocol on a NovoCyte flow cytometer (ACEA Biosciences, San Diego, CA, USA). Each experiment was performed in triplicate. The apoptosis inducer camptothecin (Sigma-Aldrich, St. Louis, MO, USA) and the general caspase inhibitor, Z-VAD-FMK (BD Biosciences, Franklin Lakes, NJ, USA), were used. All flow cytometry experiments were performed twice.

[5] = test system: Gram-positive and Gram-negative bacteria; test: Antimicrobial assay, MIC summarised over the panel of strains; format: cell-based; settings: E. coli ML35p, K. pneumoniae (CI 287) and S. aureus 209P
Method: Bacterial test cultures were grown in the Mueller-Hinton (MH) medium at 37 °C to mid-log phase and then diluted with the 2 x MH medium supplemented with 1.8% NaCl. 50 µL of the bacterial suspension with a final cell concentration of 10^6 CFU/mL were added to aliquots of 50 µL of the peptide solutions and serially diluted with sterilized 0.1% bovine serum albumin in 96-well flat-bottom polystyrene microplates (Eppendorf, Hamburg, Germany). Bacterial cells were incubated for 24 h at 37 °C and 900 rpm on the plate thermoshaker (Biosan, Riga, Latvia). The minimum inhibitory concentrations (MIC) were determined as the lowest peptide concentration that prevented growth of a test microorganism observed as visible turbidity. The results were expressed as median values of three independent triplicated experiments. Assessment of antimicrobial activities of the recombinant PM III, other polyphemusins, and tachyplesins was conducted against Gram-negative (Escherichia coli ML-35p, Klebsiella pneumoniae (clinical isolate, CI 287), Pseudomonas aeruginosa PAO1) and Gram-positive (Staphylococcus aureus ATCC 29213, Staphylococcus aureus 209P, Bacillus subtilis B-886, Micrococcus luteus B-1314) bacteria.

Row | Compound | IC50 [1] [µM] | MICs [2] | other results
1 | CC(C)[C@@H]1NC(=O)[C@H](CCCNC(=N)N)NC(=O)[C@H](Cc2ccccc2)NC(=O)[C@@H](NC(=O)[C@H](Cc2c[nH]c3ccccc23)NC(=O)[C@H](CCCNC(=N)N)NC(=O)[C@@H](N)CCCNC(=N)N)CSSC[C@@H](C(=O)N[C@@H](CCCNC(=N)N)C(=O)O)NC(=O)[C@H](CCCCN)NC(=O)[C@H](CCCNC(=N)N)NC(=O)[C@H](Cc2ccc(O)cc2)NC(=O)[C@@H]2CSSC[C@H](NC1=O)C(=O)N[C@@H](Cc1ccc(O)cc1)C(=O)N[C@@H](CCCNC(=N)N)C(=O)NCC(=O)N[C@@H](Cc1ccccc1)C(=O)N2 [PM I, polyphemusin I] (H-RRWCFRVCYRGFCYRKCR-OH; disulfide 4-17, 8-13 (inferred); N-terminus assumed) | 8.8 ± 1.3 | exceeding 1 μM | –
2 | CC(C)[C@@H]1NC(=O)[C@H](CCCNC(=N)N)NC(=O)[C@H](Cc2ccccc2)NC(=O)[C@@H](NC(=O)[C@H](Cc2c[nH]c3ccccc23)NC(=O)[C@H](CCCNC(=N)N)NC(=O)[C@@H](N)CCCNC(=N)N)CSSC[C@@H](C(=O)N[C@@H](CCCNC(=N)N)C(=O)O)NC(=O)[C@H](CCCCN)NC(=O)[C@H](CCCNC(=N)N)NC(=O)[C@H](Cc2ccc(O)cc2)NC(=O)[C@@H]2CSSC[C@H](NC1=O)C(=O)N[C@@H](Cc1ccc(O)cc1)C(=O)N[C@@H](CCCCN)C(=O)NCC(=O)N[C@@H](Cc1ccccc1)C(=O)N2 [PM II, polyphemusin II] (H-RRWCFRVCYKGFCYRKCR-OH; disulfide 4-17, 8-13 (inferred); N-terminus assumed) | 10.8 ± 1.9 | exceeding 1 μM | –
3 | CC(C)[C@@H]1NC(=O)[C@H](CCCNC(=N)N)NC(=O)[C@H](Cc2ccccc2)NC(=O)[C@@H](NC(=O)CNC(=O)[C@H](CCCNC(=N)N)NC(=O)[C@@H](N)CCCNC(=N)N)CSSC[C@@H](C(=O)N[C@@H](CCCNC(=N)N)C(=O)O)NC(=O)[C@H](CCCNC(=N)N)NC(=O)[C@H](CCC(N)=O)NC(=O)[C@H](Cc2ccccc2)NC(=O)[C@@H]2CSSC[C@H](NC1=O)C(=O)N[C@@H](Cc1ccc(O)cc1)C(=O)N[C@@H](CCCNC(=N)N)C(=O)NCC(=O)N[C@@H](Cc1ccccc1)C(=O)N2 [PM III, polyphemusin III] (H-RRGCFRVCYRGFCFQRCR-OH; disulfide 4-17, 8-13 (inferred); N-terminus assumed) | – | – | IC50 [3]: < 10 µM; double-stained cells, Q2-2 (AV+PI+, late apoptotic/necrotic) ([4]; HL-60, 2.5 µM, 50 μM Z-VAD-FMK added): > 30%; double-stained cells, Q2-2 (AV+PI+, late apoptotic/necrotic) ([4]; HL-60, 2.5 µM, no Z-VAD-FMK): > 40%; double-stained cells, Q2-2 (AV+PI+, late apoptotic/necrotic) ([4]; HL-60, 5 µM, 50 μM Z-VAD-FMK added): > 70%; double-stained cells, Q2-2 (AV+PI+, late apoptotic/necrotic) ([4]; HL-60, 5 µM, no Z-VAD-FMK): > 80%; influence of the caspase inhibitor Z-VAD-FMK on the effect of the substance (annexin V-FITC/PI staining) ([4]; HL-60, 4 h of incubation, 50 μM Z-VAD-FMK): almost not affected; reduction in activity compared to PM I, TP I, and TP III [5]: 4 fold
4 | CC[C@H](C)[C@@H]1NC(=O)CNC(=O)[C@H](CCCNC(=N)N)NC(=O)[C@H](Cc2ccc(O)cc2)NC(=O)[C@@H]2CSSC[C@H](NC1=O)C(=O)N[C@@H](Cc1ccc(O)cc1)C(=O)N[C@@H](CCCNC(=N)N)C(=O)N[C@@H](CCCNC(=N)N)C(=O)N[C@H](C(=O)N[C@@H](CCCNC(=N)N)C(=O)O)CSSC[C@H](NC(=O)[C@H](Cc1c[nH]c3ccccc13)NC(=O)[C@@H](N)CCCCN)C(=O)N[C@@H](Cc1ccccc1)C(=O)N[C@@H](CCCNC(=N)N)C(=O)N[C@@H](C(C)C)C(=O)N2 [TP I, tachyplesin I] (H-KWCFRVCYRGICYRRCR-OH; disulfide 3-16, 7-12 (inferred); N-terminus assumed) | 26.5 ± 1.2 | exceeding 1 μM | –
5 | CC[C@H](C)[C@@H]1NC(=O)CNC(=O)[C@H](CCCNC(=N)N)NC(=O)[C@H](Cc2ccc(O)cc2)NC(=O)[C@@H]2CSSC[C@H](NC1=O)C(=O)N[C@@H](Cc1ccc(O)cc1)C(=O)N[C@@H](CCCNC(=N)N)C(=O)N[C@@H](CCCCN)C(=O)N[C@H](C(=O)N[C@@H](CCCNC(=N)N)C(=O)O)CSSC[C@H](NC(=O)[C@H](Cc1c[nH]c3ccccc13)NC(=O)[C@@H](N)CCCNC(=N)N)C(=O)N[C@@H](Cc1ccccc1)C(=O)N[C@@H](CCCNC(=N)N)C(=O)N[C@@H](C(C)C)C(=O)N2 [TP II, tachyplesin II] (H-RWCFRVCYRGICYRKCR-OH; disulfide 3-16, 7-12 (inferred); N-terminus assumed) | 28.1 ± 1.7 | exceeding 1 μM | –
6 | CC[C@H](C)[C@@H]1NC(=O)CNC(=O)[C@H](CCCNC(=N)N)NC(=O)[C@H](Cc2ccc(O)cc2)NC(=O)[C@@H]2CSSC[C@H](NC1=O)C(=O)N[C@@H](Cc1ccc(O)cc1)C(=O)N[C@@H](CCCNC(=N)N)C(=O)N[C@@H](CCCCN)C(=O)N[C@H](C(=O)N[C@@H](CCCNC(=N)N)C(=O)O)CSSC[C@H](NC(=O)[C@H](Cc1c[nH]c3ccccc13)NC(=O)[C@@H](N)CCCCN)C(=O)N[C@@H](Cc1ccccc1)C(=O)N[C@@H](CCCNC(=N)N)C(=O)N[C@@H](C(C)C)C(=O)N2 [TP III, tachyplesin III] (H-KWCFRVCYRGICYRKCR-OH; disulfide 3-16, 7-12 (inferred); N-terminus assumed) | 15.3 ± 1 | – | –
